Where two headings read alike, the source gives them in different places.
Columns and labels:
[1] = test system: SARS-CoV-2 SA variant B.1351; assay type: cell-based, Severe acute respiratory syndrome coronavirus; conditions: MOI 0.1, 1 and 10, 50, 75 and 100µM, 24 hours
SARS-CoV-2 (FI) = assay type: cell-based, Severe acute respiratory syndrome coronavirus; conditions: ATR-002 100 µM

O=C(O)c1ccc(F)c(F)c1Nc1ccc(I)cc1Cl [ATR-002, 2-(2-chloro-4-iodophenylamino)-N-3,4-difluoro benzoic acid]
virus yield ([1]; Calu-3 cells): reduction of virus yield
virus yield ([1]; Vero cells): reduction of virus yield
production of progeny viral particles (SARS-CoV-2 (FI); A549-ACE2/TMPRSS2 cells, MOI of 0.001): reduced the production of progeny viral particles
production of progeny viral particles (SARS-CoV-2 (FI); A549-ACE2/TMPRSS2 cells, MOI: 0.01): did not affect the production of progeny viral particles
production of progeny viral particles (SARS-CoV-2 (FI); Calu-3 cells, MOI of 0.001): reduced the production of progeny viral particles
